# From ChEMBL document CHEMBL1201862, “PubChem BioAssay data set” (2004)
#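 Protocol summary: plate cells (96-well), add compound at 5 concentrations, incubate 48 h, interpolate endpoints linearly. The concentration for 50% growth inhibition is given as GI50.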 The source made the active and inactive calls. No stated cut-off is given here; in the data, active = GI50 up to about 1.1 µM and inactive = higher.
# Columns and labels:
# Experiment in all cases: inhibition of tumour cell growth, NCI panel, 48 h
# UO-31 = test system: UO-31
# CCRF-CEM = test system: CCRF-CEM
# SF-268 = test system: SF-268
# ACHN = test system: ACHN
# A549 = test system: A549
# OVCAR-8 = test system: OVCAR-8
# NCI-H522 = test system: NCI-H522
# OVCAR-5 = test system: OVCAR-5
# CAKI-1 = test system: CAKI-1
# 786-0 = test system: 786-0
# HT-29 = test system: HT-29
# SNB-19 = test system: SNB-19
# HCC 2998 = test system: HCC 2998
# EKVX = test system: EKVX
# SK-MEL-5 = test system: SK-MEL-5
# KM12 = test system: KM12
# TK-10 = test system: TK-10
# NCI-H460 = test system: NCI-H460
# UACC-257 = test system: UACC-257
SMILES,GI50 (UO-31),GI50 (CCRF-CEM),GI50 (SF-268),GI50 (ACHN),GI50 (A549),GI50 (OVCAR-8),GI50 (NCI-H522),GI50 (OVCAR-5),GI50 (CAKI-1),GI50 (786-0),GI50 (HT-29),GI50 (SNB-19),GI50 (HCC 2998),GI50 (EKVX),GI50 (SK-MEL-5),GI50 (KM12),GI50 (TK-10),GI50 (NCI-H460),GI50 (UACC-257)
C=CCCCC(C#N)(c1ccccc1)N1CCCC1 (stereo not drawn),> 100 µM (inactive),> 100 µM (inactive),> 100 µM (inactive),> 100 µM (inactive),> 100 µM (inactive),> 100 µM (inactive),> 100 µM (inactive),> 100 µM (inactive),> 100 µM (inactive),> 100 µM (inactive),> 100 µM (inactive),> 100 µM (inactive),> 100 µM (inactive),> 100 µM (inactive),> 100 µM (inactive),> 100 µM (inactive),> 100 µM (inactive),> 100 µM (inactive),> 100 µM (inactive)
N#CC(C#N)=C1NC(=O)CC(=O)N1,> 100 µM (inactive),> 100 µM (inactive),> 100 µM (inactive),–,> 100 µM (inactive),> 100 µM (inactive),> 100 µM (inactive),> 100 µM (inactive),> 100 µM (inactive),> 100 µM (inactive),> 100 µM (inactive),> 100 µM (inactive),> 100 µM (inactive),> 100 µM (inactive),> 100 µM (inactive),> 100 µM (inactive),> 100 µM (inactive),> 100 µM (inactive),> 100 µM (inactive)
C[C@@H](CO)OCOCc1ccccc1,> 100 µM (inactive),> 100 µM (inactive),> 100 µM (inactive),–,> 100 µM (inactive),–,> 100 µM (inactive),–,> 100 µM (inactive),> 100 µM (inactive),> 100 µM (inactive),> 100 µM (inactive),> 100 µM (inactive),–,> 100 µM (inactive),> 100 µM (inactive),–,> 100 µM (inactive),> 100 µM (inactive)
Cc1ccc(S(=O)(=O)OC(C=O)C(O)C(O)COC(c2ccccc2)(c2ccccc2)c2ccccc2)cc1 (stereo not drawn),16.8 µM (inactive),–,19.6 µM (inactive),15.3 µM (inactive),18.2 µM (inactive),13.6 µM (inactive),13.1 µM (inactive),20.1 µM (inactive),19.8 µM (inactive),14.1 µM (inactive),12.2 µM (inactive),14.8 µM (inactive),12 µM (inactive),13.9 µM (inactive),15.4 µM (inactive),11.9 µM (inactive),–,14 µM (inactive),13.2 µM (inactive)
O=C(Nc1cccc(Cl)c1)c1cc2cc(/N=N/c3ccc(Br)cc3)ccc2oc1=O,14 µM (inactive),–,14.6 µM (inactive),23.7 µM (inactive),90.6 µM (inactive),58.7 µM (inactive),49.4 µM (inactive),31 µM (inactive),23.2 µM (inactive),25.5 µM (inactive),66.7 µM (inactive),25.1 µM (inactive),25.8 µM (inactive),34.3 µM (inactive),36.8 µM (inactive),19.2 µM (inactive),51.1 µM (inactive),36 µM (inactive),33.3 µM (inactive)
CCOC(=O)/C(=C/c1ccccc1Br)P(=O)(OCC)OCC,–,0.738 µM (active),2.9 µM (inactive),2.57 µM (inactive),2.67 µM (inactive),1.91 µM (inactive),0.927 µM (active),2.53 µM (inactive),2.09 µM (inactive),1.34 µM (inactive),2.82 µM (inactive),2.49 µM (inactive),1.78 µM (inactive),2.58 µM (inactive),1.63 µM (inactive),1.87 µM (inactive),3.23 µM (inactive),2.87 µM (inactive),–
